Entries after “also recorded” stand apart in the source; their conditions may differ. Like-named read-outs stand apart in the source and are kept apart here. Marks after values point to notes of the source that are not given here.
Assays:
[1] = system: brain ischemia-reperfusion injury (IRI); assay: Intraluminal middle cerebral artery (MCA) occlusion brain stroke mouse model; type: in vivo
MAP3K3 = assay: Western analysis of MAP3K3 protein content induced by fMLP in neutrophils; type: cell-based; conditions: mouse neutrophils
Protocol: (§1) Mouse bone marrow neutrophils were isolated from long bones. After lysis of red blood cells (RBCs) with ACK buffer (155 mM NH4Cl, 10 mM KHCO3 and 127 μM EDTA), bone marrow cells were separated on a discontinuous Percoll gradient composed of 81%, 62%, and 45% Percoll. Neutrophils were collected at the interphase between 81% and 62% Percoll, washed in HBSS, and used for assays.

ERK phosphorylation = ERK phosphorylation in mouse neutrophils; type: cell-based
Protocol: as §1

mouse neutrophils = assay: ROS release assay in mouse neutrophils; type: cell-based; conditions: fMLP (1 μM)
Protocol: as §1
For measurement of extracellular ROS release, isolated neutrophils were placed in the reaction buffer (0.25% BSA in HBSS with Ca^2+ and Mg^2+, 10 mM Isoluminol, 100 u/ml HRP) and stimulated with fMLP or PMA. For measurement of total ROS production, neutrophils were incubated with the reaction buffer (0.25% BSA in HBSS with Ca^2+ and Mg^2+, 10 mM Luminol, 100 u/ml HRP), followed with stimulations. Chemiluminescence was read continuously in a plate reader (Perkin Elmer). For reconstituted ROS production system in COS-7 cells, PMA (2 μM) was used for stimulation.

HCl-induced ALI = assay: Acid aspiration (HCl)-induced acute lung injury mouse model; type: in vivo; conditions: for BAL cytokine contents / myeloid cell (neutrophil) infiltration in BAL and lungs: injured lungs; for phosphorylated AKT levels in lung extracts: lungs subjected to ALI, AKT S473; for effect on survival: mice lacking p47^phox in hematopoietic cells
Protocol: Mice were anaesthetized by ketamine/Xylazine ([…] and 100 mg/kg) and were secured vertically from their incisors on a custom-made mount for orotracheal instillation. A 22G catheter (Jelco, Smiths Medical) was guided 1.5 cm below the vocal cords, and 2.5 μl/g of 0.05 M HCl was instilled. Four hours after the induction of injury, 100 μl of FITC-labeled albumin (10 mg/ml) was injected via retro-orbital vein. Mice were euthanized for sample collection 6 hours after the induction of injury. For the baseline permeability measurement, saline without HCl was administered the same way. The baseline permeability measurement was subtracted in the data presented.
In survival experiments, mice received 2.5 μl/g of 0.1 M HCl orotracheally and the observation period was extended up to 30 h.
Acute lung injury indices were quantified using HE-stained lung sections. The quantification of perivascular interstitial edema was done as the ratios of perivascular interstitial edema areas to vessel areas. More than 8 sections from the same lobes of the lungs were quantified for each mouse.
Fifteen min after HCl ALI-induction, BALs were collected from the lungs. Mouse lungs were then mechanically dissociated and filtered through a 40 μm mesh to generate a single-cell suspension, and red blood cells were lysed. BAL cells, which were pelleted and resuspended, and whole lung cells were labeled for 30 minutes at 37° C. with 1 μM CM-H2-DCFDA (C6827, Invitrogen). The cells were then labeled for the surface markers (CD45; BD Bioscience 564279; Ly-6G; BD Bioscience 560602). Flow cytometry was performed on a BD LSRII.

LPS-induced ALI = assay: LPS-induced acute lung injury mouse model; type: in vivo
[2] = Clinical pharmacokinetics of pazopanib; type: in vivo; conditions: human, IV 20 mg/subject, extrapolated
[3] = cited from earlier work; for AUC / Cmax: human
[4] = 800 mg orally once daily in cancer patients; cited from earlier work
in vivo [5] = conditions: rat, iv; for AUC(0-inf) / Cmax: 10 mg/kg/day
in vivo [6] = conditions: monkey, iv; for AUC(0-inf) / Cmax: 10 mg/kg/day
[7] = IV toxicology and toxicokinetic studies in rats; conditions: for safety margin based on Cmax: vs Cmax 3.4 μg/mL in man (20 mg IV)
[8] = drug given during ischemic phase
[9] = given i.v. 0.5 hrs after reperfusion
[10] = HCl model, therapeutic modality, intranasally post injury induction
[11] = therapeutic modality, intranasally post injury induction
[12] = IV administration 5 mg/subject (N=7)
[13] = oral, reported with bioavailability
[14] = rat, 5 days, IV 20 minute infusion

Cc1ccc(Nc2nccc(N(C)c3ccc4c(C)n(C)nc4c3)n2)cc1S(N)(=O)=O [pazopanib, 5-((4-((2,3-dimethyl-2H-indazol-6-yl)(methyl)amino)pyrimidin-2-yl)amino)-2-methylbenzenesulfonamide]
brain IRI ([1]; 60 μg retro-orbital intravenous injection 30 min after reperfusion): reduces brain IRI
brain IRI ([1]; 60 μg retro-orbital intravenous injection immediately after reperfusion): fails to reduce brain IRI
infarct size of the brain [1, 8]: no improvement
neurological score [1, 8]: no improvement
infarct size [1, 9]: less infarct size
neurological deficit score [1, 9]: improved neurological deficit score
increase in MAP3K3 protein content induced by fMLP (MAP3K3): abrogated the increase in MAP3K3 protein content
ERK phosphorylation (ERK phosphorylation): did not affect
ROS production (mouse neutrophils; WT mouse neutrophils): increases in ROS production
ROS production (mouse neutrophils; WT mouse neutrophils, listed as Pazopanib): increases ROS release
ROS production (mouse neutrophils; p47^phox-KI neutrophils, 20 nM pazopanib): failed to elevate ROS production
mortality (HCl-induced ALI; HCl model, prophylactic, intranasally prior to injury): reduced
mortality (HCl-induced ALI; [10]): significant reductions; also recorded: reduces mortality
perivascular interstitial edema (HCl-induced ALI; [10]): significant reductions
BAL cytokine contents (HCl-induced ALI): did not affect
myeloid cell (neutrophil) infiltration in BAL and lungs (HCl-induced ALI): did not affect
BAL cytokine contents (HCl-induced ALI; listed as Pazopanib): no significant effects
myeloid cell (neutrophil) infiltration in BAL and lungs (HCl-induced ALI; listed as Pazopanib): no significant effects
phosphorylated AKT levels in lung extracts (HCl-induced ALI): increases in phosphorylated AKT levels
phosphorylated AKT levels in lung extracts (HCl-induced ALI; listed as Pazopanib): increases phosphorylation of AKT at S473
effect on survival (HCl-induced ALI): abrogated the effects of pazopanib
effect on survival (HCl-induced ALI; listed as Pazopanib): failed to increase survival
ROS in neutrophils in BALs and lungs (HCl-induced ALI; pazopanib-treated mice subjected to HCl lung insult, DCFDA): elevated ROS
mortality (LPS-induced ALI; prophylactic, orally prior to injury): reduced
mortality (LPS-induced ALI; [11]): significant reductions; also recorded: reduces mortality
perivascular interstitial edema (LPS-induced ALI; [11]): significant reductions
AUC(0-∞), assuming dose-linearity [2]: 81.6^a μg·h/mL
Cmax, assuming dose-linearity [2]: 3.4^a μg/mL
AUC(0-inf) ([2]; in vivo, read-out: AUC(0-∞), assuming dose-linearity): 81.6 µg·h/mL
Cmax ([2]; in vivo, read-out: Cmax, assuming dose-linearity): 3.4 µg/mL
margin of safety based on AUC values (2-week rat and monkey studies): < 10 fold
safety margin based on Cmax (female monkeys): 23 fold
safety margin based on Cmax (male monkeys): 25 fold
HED for 70 kg human (monkey, 2-week study): 224 mg
Margin of safety (monkey, 5 days, IV 20 minute infusion, clinical dose 20 mg/day or 0.29 mg/kg): 33.1X
t1/2 (monkeys): a few hours
AUC [3, 12]: 20.4 µg·h/mL
Cmax [3, 12]: 0.848 µg/mL
AUC [3, 13]: 806 µg·h/mL
Cmax [3, 13]: 43.9 µg/mL
half-life (t1/2) ([3]; in man): 27.5 h
tolerability [4]: well-tolerated
AUC(0-inf) (in vivo [5]; female): 276 µg·h/mL
Cmax (in vivo [5]; female): 47 µg/mL
AUC(0-inf) (in vivo [5]; male): 278 µg·h/mL
Cmax (in vivo [5]; male): 55 µg/mL
NOAEL at 2 weeks (in vivo [5]): 10 mg/kg/day
NOAEL at 14 days (in vivo [5]): 10 mg/kg
AUC(0-inf) (in vivo [6]; female): 167 µg·h/mL
Cmax (in vivo [6]; female): 80 µg/mL
AUC(0-inf) (in vivo [6]; male): 143 µg·h/mL
Cmax (in vivo [6]; male): 85 µg/mL
NOAEL at 2 weeks (in vivo [6]; NOAEL (no observed adverse effect level), monkeys, 2-week GLP IV infusion (20-minute)): 10 mg/kg/day
NOAEL at 5 days (in vivo [6]; NOAEL, 5 days, IV 20 minute infusion): 30 mg/kg
NOAEL at 14 days (in vivo [6]; NOAEL, 14 days, IV 20 minute infusion): 10 mg/kg
Margin of safety ([7]; 2-week rat study vs 20 mg clinical starting dose): 5.6 fold
safety margin based on Cmax ([7]; female rats): 16.2 fold
safety margin based on Cmax ([7]; male rats): 13.8 fold
HED for 70 kg human ([7]; rat, 2-week study): 112 mg
HED of NOAEL [7, 14]: 8 mg/kg
NOAEL [7, 14]: 50 mg/kg
Margin of safety ([7]; rat, 5 days, IV 20 minute infusion, clinical dose 20 mg/day or 0.29 mg/kg): 27.6X
Margin of safety ([7]; rat, 14 days, IV 20 minute infusion, clinical dose 20 mg/day or 0.29 mg/kg): 5.6X
t1/2 ([7]; rat, in vivo): a few hours
HED of NOAEL ([7]; rat, single dose, IV bolus): 4.8 mg/kg
Margin of safety ([7]; rat, single dose, IV bolus, clinical dose 20 mg/day or 0.29 mg/kg): 16.6X

— patent US20230026808A1, “COMPOUNDS, COMPOSITIONS, AND METHODS FOR TREATING ISCHEMIA-REPERFUSION INJURY AND/OR LUNG INJURY” (YALE UNIVERSITY, priority 2019, published 2023)
